Results as given in patent publication US20040023878A1, “Gnrh analogues for treatment of urinary incontinence” (priority 2003, published 2004).
“And” between values parts separate entries of the source, which are not always exact repeats. Equal values may be shown once. “Also recorded” adds a separate entry of the source. Where a name gives a salt, the structure may show the parent alone.

Assays:
[1] = system: bitches suffering from urinary incontinence after spaying; test: Fifteen bitches with urinary incontinence after spaying, given a slow-release s.c. GnRH analogue implant plus phenylpropanolamine for a limited period; assay type: in vivo, dog; details: for Side effects: dash = none
Protocol: Additionally, for a limited period the dogs were treated with phenylpropanolamine in a dosage of 1.5 mg/kg BW tid orally.
After discontinuation of the shortacting phenylpropanolamine 8 bitches remained continent. Their continence was therefore achieved solely by the treatment with the composition as described in the present invention. Seven out of fifteen dogs seemed to be much happier and in none of the dogs did the general condition deteriorate. […] The respective results are shown in more detail in table 1.

[2] = system: dogs suffering from urinary incontinence; test: Double-blind, placebo-control study with open label phase in 16 client owned dogs suffering from urinary incontinence; assay type: in vivo, dog; details: ongoing study
Protocol: In a second ongoing study, 16 client owned dogs suffering from urinary incontinence were enrolled in a double-blind, placebo-control study. In the initial phase of the study, dogs were randomly assigned to treatment with a long-acting GnRH analogue (leuprolide acetate) or placebo (dog owners and the investigators were blinded to treatment) along with a short course of therapy with phenylpropanolamine. 5 weeks after treatment with drug or placebo, dogs were evaluated and, if not fully continent, treated with a long-acting GnRH analogue (leuprolide acetate) in an open label phase of the study. To date only 1 of 10 dogs treated with placebo became continent vs. […] treated with drug during the blinded portion of the study. Overall, the results generated thus far indicate […] dogs treated with the long-acting GnRH analogue became continent and […] improved after discontinuation of the short acting phenylpropanolamine. Only 1 dog of 15 treated with the GnRH analogue was considered not to have improved following treatment with the drug.

stress incontinence = test: Menopausal person with stress incontinence, 24 hour pad test; assay type: in vivo, human; details: single dose 3.75 mg, one person
Protocol: A second menopausal person, suffering from stress incontinence for at least 6 years, was treated with a single dose of 3.75 mg of leuprolide acetate. 24 hour pad tests conducted prior to treatment with the drug indicated they lost between 10 and 130 ml of urine on a daily basis due to their incontinence.

[3] = system: urinary incontinence of the bitch; details: 1.5 mg/kg BW p.o. given every 8 hours; incontinent spayed bitches; cited from earlier work
[4] = system: excessive growth of the undercoat (baby coat) due to spaying; test: Two cocker spaniel bitches with excessive growth of the undercoat due to spaying, slow-release s.c. implant; assay type: in vivo, dog; details: 5 mg slow release s.c.
Protocol: Two cocker spaniel bitches belonging to the same owner were showing excessive growth of the undercoat due to spaying. […] Both dogs were first clinically examined and thereafter a GnRH analogue (Deslorelin) in a dosage of 5 mg, in slow release form, was subcutaneously implanted between the shoulder blades.

[5] = system: urge incontinence and hotflushes; test: Perimenopausal person with urge incontinence and hot flushes; assay type: in vivo, human; details: 3.75 mg; one perimenopausal person
[6] = 11,25 mg slow release s.c. implant, no 'with PPA' mark, individual bitches, listed as Leuprorelin acetate
[7] = 11,25 mg slow release s.c. implant, with PPA, individual bitch
[8] = 6 mg slow release s.c. implant, no 'with PPA' mark, individual bitches
[9] = 12 mg slow release s.c. implant, no 'with PPA' mark, individual bitches

Buserelin acetate [Buserelinacetate]
Duration of effect after treatment ([1]; 6,3 mg slow release s.c. implant, individual bitches): 44 days and 83 days
Effect on incontinence ([1]; 6,3 mg slow release s.c. implant, no 'with PPA' mark, individual bitches): 100%

CCNC(=O)[C@@H]1CCCN1C(=O)[C@H](CCCNC(=N)N)NC(=O)[C@H](CC(C)C)NC(=O)[C@@H](CC(C)C)NC(=O)[C@H](Cc1ccc(O)cc1)NC(=O)[C@H](CO)NC(=O)[C@H](Cc1c[nH]c2ccccc12)NC(=O)[C@H](Cc1c[nH]cn1)NC(=O)[C@@H]1CCC(=O)N1 [Leuprorelinacetate, leuprolide acetate]
Dogs that became continent after discontinuation of phenylpropanolamine, overall ([2]; of 15 dogs treated (blinded plus open label)): 6 dogs
Dogs considered not to have improved following treatment ([2]; of 15 treated): 1 dog
Remaining dogs that improved after discontinuation of phenylpropanolamine ([2]; of the remaining dogs of 15 treated): 9 dogs
Dogs that became continent during the blinded portion of the study ([2]; printed '3 to 8 dogs treated with drug', 5 weeks after treatment, with short course of phenylpropanolamine): 3 dogs
Duration of effect after treatment ([1]; 11,25 mg slow release s.c. implant, no 'with PPA' mark, individual bitches): 0 days
Duration of effect after treatment [1, 6]: >14 days
Effect on incontinence [1, 6]: 100%
Duration of effect after treatment [1, 7]: >64 days
Effect on incontinence [1, 7]: 100%
Daily urine loss, pad test (stress incontinence; 2 weeks after treatment, before treatment between 10 and 130 ml daily): 1 mL
Patient's satisfaction with the effects of the therapy (stress incontinence): very satisfied

CC(N)C(O)c1ccccc1 (centres unmarked) [phenylpropanolamine]
Continence achieved [3]: 74%
Showed some improvement [3]: at least 24%

Deslorelin acetate [Deslorelinacetate]
Side effects ([1]; 6 mg slow release s.c. implant, individual bitches): More playfull
Duration of effect after treatment [1, 8]: >47 days and >340 days
Effect on incontinence [1, 8]: 100%
Effect on incontinence ([1]; 6 mg slow release s.c. implant, with PPA, individual bitch): 100%
Side effects ([1]; 12 mg slow release s.c. implant, individual bitches): less aggressive; also recorded: more activ
Duration of effect after treatment [1, 9]: 64 days and >64 days
Effect on incontinence [1, 9]: 100%
Effect on incontinence ([1]; 12 mg slow release s.c. implant, with PPA, individual bitches): 80% and 100% (2×)

CN[C@@H](C)[C@H](O)c1ccccc1 [ephedrinhydrochloride]
Continence achieved [3]: 74%
Showed some improvement [3]: at least 24%

CCNC(=O)[C@@H]1CCCN1C(=O)[C@H](CCCN=C(N)N)NC(=O)[C@H](CC(C)C)NC(=O)[C@@H](Cc1c[nH]c2ccccc12)NC(=O)[C@H](Cc1ccc(O)cc1)NC(=O)[C@H](CO)NC(=O)[C@H](Cc1c[nH]c2ccccc12)NC(=O)[C@H](Cc1cnc[nH]1)NC(=O)[C@@H]1CCC(=O)N1 [Deslorelin]
Coat quality ([4]; 5 weeks after the injection, both dogs): obvious amelioration of the coat quality
Signs of baby coat ([4]; 21 weeks after injection): no signes of “baby coat” were apparent anymore

Triptorelin acetate [Triptorelinacetate]
Period of improvement of symptoms [5]: about 4 weeks
Duration of effect after treatment ([1]; 3,75 mg slow release s.c. implant (dose too low), individual bitch): 0
